# In PubChem BioAssay (NCI):
# “And” between values parts separate entries of the source, which are not always exact repeats. Equal values may be shown once.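 96-well plates; 48 h exposure; 5 concentrations. Endpoints by linear interpolation between flanking doses. Not reached: highest tested concentration assigned. Abbreviation: GI50, concentration required for 50% inhibition of growth. TGI: total growth inhibition.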
# Legend:
# Experiment in all cases: NCI tumour cell line growth inhibition, 48 h
# SW-620 colon = tested on: SW-620 colon
# CAKI-1 renal = tested on: CAKI-1 renal
# UO-31 renal = tested on: UO-31 renal
# HCT-15 colon = tested on: HCT-15 colon
# KM12 colon = tested on: KM12 colon
# DU-145 prostate = tested on: DU-145 prostate
# SN12C renal = tested on: SN12C renal
# SNB-75 CNS = tested on: SNB-75 CNS
# SF-295 CNS = tested on: SF-295 CNS
# OVCAR-4 ovarian = tested on: OVCAR-4 ovarian
Compound,GI50 (SW-620 colon),TGI (SW-620 colon),GI50 (CAKI-1 renal) [µM],TGI (CAKI-1 renal),GI50 (UO-31 renal),GI50 (HCT-15 colon),TGI (HCT-15 colon),GI50 (KM12 colon),TGI (KM12 colon),GI50 (DU-145 prostate),TGI (DU-145 prostate),GI50 (SN12C renal),TGI (SN12C renal),GI50 (SNB-75 CNS) [µM],GI50 (SF-295 CNS),TGI (SF-295 CNS),GI50 (OVCAR-4 ovarian),TGI (OVCAR-4 ovarian),TGI (UO-31 renal),TGI (SNB-75 CNS)
CC[C@@]1(OC(=O)CN)C(=O)OCc2c1cc1n(c2=O)Cc2cc3cc(N)ccc3nc2-1,0.0231 µM,> 100 µM,< 0.01,0.0398 µM,< 0.0113 µM,0.153 µM,> 20.3 µM,0.12 µM,0.811 µM,< 0.01 µM,> 76.5 µM,< 0.01 µM,> 100 µM,< 0.017,< 0.01 µM,> 100 µM,0.363 µM,2.7 µM,,
CCCCCCCCCCCCCCCC[N+]1(CC)CCCC1,0.41 µM,1.65 µM,1.75,11.3 µM,2.79 µM,1.35 µM,5.49 µM,0.73 µM,2.04 µM,0.84 µM,2.14 µM,1.1 µM,2.44 µM,0.247,,,0.315 µM,2.25 µM,11.6 µM,1.11 µM
O=C1c2c(O)cccc2C(C(=O)CCCCC(=O)C2c3cccc(O)c3C(=O)c3c(O)cccc32)c2cccc(O)c21,1.73 µM,10.1 µM and 7.17 µM,3.24,8.43 µM and 9.38 µM,1.11 µM,1.75 µM,2.6 µM and 5.12 µM,0.884 µM,1.31 µM and 1.68 µM,,1.81 µM,3.31 µM,3.89 µM and 9.64 µM,1.4,0.672 µM,4.57 µM and 1.49 µM,1.21 µM,1.74 µM and 2.31 µM,1.01 µM and 2.38 µM,3.44 µM and 3.32 µM
Cc1nn(-c2ccccc2)c2c1C1C(=C(c3ccc(Cl)cc3)N2)C(=O)Nc2ccccc21 (stereo not given),4.16 µM,> 100 µM,3.04,> 100 µM,2.86 µM,3 µM,18.6 µM,3.6 µM,20.8 µM,7.01 µM,> 100 µM,4.96 µM,32.2 µM,3.9,2.49 µM,7.77 µM,5.33 µM,> 100 µM,30.3 µM,96.3 µM
COc1cc(C(c2cc3c(cc2O)OCO3)N2CCCC2)cc(OC)c1OC (stereo not given),,> 100 µM,,27 µM,,,29.2 µM,,37.2 µM,,36 µM,,45.9 µM,,,36 µM,,34.2 µM,28.1 µM,32.7 µM
O=C1C=C(Nc2cccc(Br)c2)c2ccccc2C1=O,0.482 µM,> 100 µM,4.16,> 100 µM,1.81 µM,1.33 µM,> 100 µM,4.13 µM,> 100 µM,0.569 µM,14 µM,5.79 µM,23.8 µM,0.39,3.21 µM,15.1 µM,11 µM,63.2 µM,33.6 µM,5.01 µM
Nc1ncnc2occ(-c3ccc(NC(=O)Nc4cc(C(F)(F)F)cc(C(F)(F)F)c4)cc3)c12,4.01 µM,7.61 µM,2.6,10 µM,1.93 µM,2.98 µM,7.83 µM,0.0916 µM,3.95 µM,3.59 µM,7.34 µM,2.12 µM,5.51 µM,1.42,2.72 µM,6.53 µM,1.81 µM,5.92 µM,6.89 µM,4.88 µM
COc1cc2oc3ccccc3c(=O)c2cc1CSc1ccccc1N,,> 100 µM,,> 100 µM,,,> 100 µM,,84 µM,,> 84.9 µM,,> 100 µM,,,> 100 µM,,> 100 µM,,> 100 µM
Cc1ccc([P+](Cc2ccc([N+](=O)[O-])cc2)(c2ccc(C)cc2)c2ccc(C)cc2)cc1,3.07 µM,15.4 µM,18,47.1 µM,13.3 µM,18.2 µM,46.2 µM,2.44 µM,10.2 µM,5.44 µM,20.8 µM,4.27 µM,17.5 µM,1.99,5.24 µM,18.6 µM,2.2 µM,11.3 µM,31.5 µM,8.77 µM
CC1(C)N=C(N)N=C(N)N1c1ccc(OCC(=O)Nc2cccc(S(=O)(=O)F)c2)c(Cl)c1,,> 100 µM,,> 100 µM,,,> 100 µM,,> 95 µM,,> 100 µM,,> 100 µM,,,> 73.5 µM,,> 100 µM,> 100 µM,> 100 µM
COc1ccc(C[C@H]2C[C@@H](O)[C@@H](C)C/C=C/Cc3cccc(O)c3C(=O)O2)cn1,31.6 µM,> 100 µM,21.8,54.6 µM,19.9 µM,28.9 µM,88.8 µM,23.5 µM,62.4 µM,27.7 µM,> 100 µM,19.4 µM,43.9 µM,17,18 µM,41.5 µM,23.7 µM,74.1 µM,66.1 µM,73.4 µM
COc1ccc2c(c1O)[C@@]13C=C(O)C(=O)C=C1[C@@H](C2)N(C)CC3,,,,> 100 µM,,,> 100 µM,,> 100 µM,,> 100 µM,,> 100 µM,,,> 100 µM,,> 100 µM,> 100 µM,> 100 µM
COc1ccc2nc3ccc(OC)cc3c(SCCCN)c2c1,1.44 µM,3.15 µM,9.79,26 µM,3.91 µM,3.17 µM,20.2 µM,4.52 µM,20.5 µM,1.81 µM,3.26 µM,10.8 µM,25.5 µM,13,18.3 µM,38.7 µM,5.02 µM,17 µM,18.3 µM,27.9 µM
Cc1nnc([S-])s1.[Au+].c1ccc([PH+](c2ccccc2)c2ccccc2)cc1,,,1.64,3 µM,1.64 µM,,,1.83 µM,3.41 µM,1.68 µM,3.23 µM,,,1.53,1.74 µM,3.21 µM,,,2.99 µM,2.87 µM
CCOP(=O)(OCC)/C(C#N)=C\c1cccc2ccccc12,,> 100 µM,,> 100 µM,,,> 100 µM,,> 100 µM,,> 100 µM,,> 100 µM,,,> 100 µM,,> 100 µM,> 100 µM,88.5 µM
COc1ccccc1C(=O)c1cnc(NC2CCN(S(C)(=O)=O)CC2)nc1N,4.33 µM,> 25 µM,5.84,> 25 µM,7.43 µM,6.28 µM,> 25 µM,5.74 µM,> 25 µM,6.51 µM,> 25 µM,5.48 µM,> 25 µM,7.57,5.5 µM,> 25 µM,12.4 µM,> 25 µM,> 25 µM,> 25 µM
CCCC/C(=N\N=C(N)N)c1ccc(F)cc1,,,3.44,15.1 µM,5.28 µM,2.49 µM,14.2 µM,2.79 µM,14 µM,3.89 µM,14.7 µM,4.37 µM,17.3 µM,2.36,2.84 µM,12.3 µM,5.27 µM,20 µM,20.1 µM,12.5 µM
COc1ccc(S(=O)(=O)N/N=C/C(=O)O)cc1,,1230 µM,,1230 µM,,,1080 µM,,> 1170 µM,,843 µM,,1140 µM,,,1070 µM,,> 1210 µM,> 1250 µM,> 1250 µM
COC(=O)[C@H](Cc1ccccc1)NC(=O)c1csc([C@@H](C[C@H](C(C)C)N(C)C(=O)[C@@H](NC(=O)[C@H]2CCCCN2C)C2CC2)OC(C)=O)n1,0.0167 µM,> 25 µM,,,0.258 µM,0.0915 µM,> 25 µM,0.0844 µM,> 25 µM,0.0218 µM,> 25 µM,0.103 µM,> 25 µM,0.0257,0.0334 µM,> 25 µM,1.62 µM,> 25 µM,> 25 µM,> 25 µM
C/C(=C(/c1ccc(O)cc1)c1ccc(OCCN2CCCC2)cc1)c1ccccc1,2.28 µM,5.17 µM,3.02,13.9 µM,1.87 µM,1.81 µM,4.64 µM,3.51 µM,13.2 µM,9.72 µM,21.4 µM,9.17 µM,25.7 µM,3.07,1.95 µM,4.19 µM,4.7 µM,17.5 µM,5.72 µM,15.7 µM
CCN(CC)CCC(=O)Nc1ccc(Cn2nnc3c2C(=O)c2nnn(Cc4ccc(NC(=O)CCN(CC)CC)cc4)c2C3=O)cc1,0.395 µM,1.75 µM,> 71.1,> 100 µM,> 41.1 µM,26.7 µM,> 100 µM,0.728 µM,2.46 µM,1.05 µM,2.25 µM,0.184 µM,0.385 µM,0.314,1.93 µM,5.33 µM,0.133 µM,0.263 µM,> 61.8 µM,0.88 µM
CC(C)(C)n1cc(-c2ccnc(NCCNS(=O)(=O)c3ccc(Br)cc3)c2)c(-c2cccc(O)c2)n1,1.72 µM,3.46 µM,2.17,6.07 µM,1.35 µM,1.35 µM,2.93 µM,1.99 µM,4.32 µM,2.14 µM,4.86 µM,1.72 µM,3.2 µM,1.36,1.82 µM,3.61 µM,1.55 µM,3.59 µM,4.47 µM,3.78 µM
Cn1c(=O)n(-c2ccc(C(C)(C)C#N)cc2)c2c3cc(-c4cnc5ccccc5c4)ccc3ncc21,0.0163 µM and 0.00734 µM and < 0.0116 µM,> 100 µM,,0.0401 µM,< 0.01 µM and 0.00361 µM,< 0.01 µM and 0.00522 µM,> 100 µM,0.0134 µM and 0.00683 µM and 0.0153 µM,1.28 µM and > 10 µM,< 0.01 µM and 0.00575 µM,33.8 µM and > 10 µM and > 100 µM,0.0101 µM and 0.00461 µM and < 0.01 µM,> 100 µM,< 0.001,< 0.01 µM and 0.00401 µM,0.0278 µM and 0.0203 µM and 0.0181 µM,0.0162 µM and 0.00409 µM and 0.01 µM,,0.0749 µM,0.0464 µM and 0.0263 µM
CN1C(=O)c2cc(Cl)nc3c(NC(=O)c4cccc(Cl)c4)c(Cl)c(NC(=O)c4cccc(Cl)c4)c1c23,1.78 µM,3.93 µM,,,1.71 µM,0.581 µM,1.94 µM,3.44 µM,15.5 µM,2.28 µM,5.19 µM,1.84 µM,3.48 µM,1.45,2.87 µM,11.6 µM,1.7 µM,3.3 µM,3.44 µM,2.84 µM
CN1CCCC1c1cccnc1.O=C(O)c1ccccc1O.O=C([O-])c1ccccc1[OH2+].O=C([O-])c1ccccc1[OH2+].O=C([O-])c1ccccc1[OH2+].[Mn+2] (stereo not given),42.4 µM,> 100 µM,> 100,> 100 µM,> 100 µM,> 100 µM,> 100 µM,> 100 µM,> 100 µM,> 100 µM,> 100 µM,> 100 µM,> 100 µM,> 100,> 100 µM,> 100 µM,> 100 µM,> 100 µM,> 100 µM,> 100 µM
CC(CC(=O)O)(CC(=O)O)C(=O)O,,> 100 µM,,> 100 µM,,,> 100 µM,,> 100 µM,,> 100 µM,,> 100 µM,,,> 100 µM,,> 100 µM,> 100 µM,> 100 µM
CC1(CC(=O)O)OC2CCCCCC2O1 (stereo not given) (tested in a mixture with another compound),,> 100 µM,,> 100 µM,,,> 100 µM,,> 100 µM,,> 100 µM,,> 100 µM,,,> 100 µM,,> 100 µM,> 100 µM,> 100 µM
COc1c(O)c(OC)c(C(=O)/C=C/c2ccccc2)c(O)c1OC,,66.2 µM,,> 100 µM,,,> 100 µM,,> 100 µM,,> 100 µM,,32.6 µM,,,> 100 µM,,> 100 µM,,> 100 µM
NC(Cc1nn[nH]n1)C(=O)O (stereo not given),,> 100 µM,,> 100 µM,,,> 100 µM,,> 100 µM,,> 100 µM,,> 100 µM,,,> 100 µM,,> 100 µM,,> 100 µM
